From patent US20090215884A1, “METHOD FOR WOUND HEALING” (priority 2005, published 2009)

Assays:
Me10538 cells = test: Cytokine production by PEP005-treated human melanoma cells; assay type: cell-based; settings: 6 h, supernatant
Experimental: Cytokine production by PEP005-treated human cells Confluent cultures of Me10538 cells, keratinocytes, fibroblasts and neutrophils were incubated for 6 h in the absence or presence of PEP005 (1-100 ng/ml). The supernatants were harvested and analyzed for the presence of the following cytokines; TNF-α, IL-6 and IL-8 using a multiplex detection kit (Biosource International, Nivelles, Belgium). Units of detected proteins are pg/ml.

[1] = system: rat full-thickness incisional wounds; test: Rat incisional wound healing model: tensiometric assessment of wound strength; assay type: in vivo; settings: single topical treatment
Description: In order to examine the effects of PEP005 on the repair of acute (surgical) incisional wounds, involving minimal new tissue generation, the rat, full-thickness incisional wound healing model, was employed.
Adult male Sprague Dawley rats (Harlan U.K. Ltd., Oxfordshire, U.K.), approximately 8-10 weeks old and weighing between 250-300 g, were used in this study. The animals were initially housed in groups of up to four per cage (cage dimensions 40×25×20 cm, with sawdust bedding, changed twice weekly), according to Home Office regulations, in an environment maintained at an ambient temperature of 23° C. with 12-hour light/dark cycles. The animals were provided food (Standard Rodent Diet) and water ad libitum. In order to acclimatize the animals to their surroundings, prior to experimentation, the animals were housed for a minimum of one week without disturbance, other than to refresh their bedding and to replenish their food and water provisions. Following wounding, animals were monitored under individual housed conditions until fully recovered from the procedure. Animals were then maintained individually for a period of 2 weeks (i.e. until their wounds have fully re-epithelialized). After this initial 2-week period, animals were maintained in groups of up to four for the remainder of the study. All animal procedures were performed in a Home Office licensed establishment, under U.K. Home Office Licences (PPL: 40/2650; PIL: 70/4934 and PIL: 60/7661).
Animals were anaesthetized using inhalation of Halothane and air, and the dorsum of each rat shaved and washed with the bactericide, chlorhexidine gluconate (0.05% aqueous). Four full-thickness incisional wounds (1 cm in length, include the panniculus carnosus and hypodermis) were created on the backs of each animal. Wounds remained unsutured (allowed to gape), in order to allow granulation tissue to form within the wounds. Following wounding (day 0), one of the four PEP005 concentrations (PEP005-free, DMSO/isopropanol gel vehicle, 0.01%, 0.028% or 0.05% PEP005) were applied to each wound, whilst non-treated wound controls remained untreated. […]
Immediately after injury, single treatments of the 0.01%, 0.028% PEP005, or DMSO/isopropanol vehicle gels, were applied at volumes of 10 μl per 100 mm^2 (1 μg/10 μl, 2.8 μg/10 μl and 5 μg/10 μl PEP005, respectively), to the marginal skin surrounding each wound, with a total area of 600 mm^2 of marginal skin receiving treatment. […] Rats were maintained in their respective experimental groups for 1, 4 and 12 weeks, when the animals in each group were euthanized and the condition of wound and peri-wound tissues (in terms of viability, erythema, oedema, etc.), monitored at all assessment points, according to Table 2.1. […]

dermal fibroblasts = test: Dermal fibroblast differentiation (α-smooth muscle actin expression); assay type: cell-based, human; settings: absence of TGF-β1
Experimental: The effects of PEP005 on dermal fibroblast differentiation to myofibroblasts, was examined by the extent of α-smooth muscle actin expression by the differentiating dermal fibroblasts, following stimulation with TGF-β. Following trypsinization, the dermal fibroblasts were suspended in Fibroblast-Serum Containing Medium, containing 10% fetal calf serum, at a cell density of 2.5×10^4 cells/ml. Aliquots (250 μl/well) of the dermal fibroblast cell suspension were seeded into 8-well chamber slides (VWR International Ltd.) and maintained at 37° C., in a 5% CO2/95% air atmosphere, until approximately 30-40% confluent. […] Various controls (three chamber slide per control) were also established, including (i) Fibroblast-Serum Containing Medium alone, (ii) cells in Fibroblast-Serum Containing Medium (cytokeratin or vimentin 1° Ab control), (iii) cells in Fibroblast-Serum Containing Medium, containing 10 ng/ml TGF-β and 1% DMSO, and (iv) cells in Fibroblast-Serum Containing Medium, containing 1% DMSO.
The chamber slides were maintained at 37° C., in a 5% CO2/95% air atmosphere, for 3 days, by which time, the cells had reached approximately 75% confluence. Chamber slides were fixed in 1:1 ice cold, acetone:methanol (300 μl/well) for 20 min and blocked in 1% BSA in PBS, at 4° C., for 1 h. […]

C/C=C(/C)C(=O)O[C@H]1C(C)=C[C@]23C(=O)[C@@H](C=C(CO)[C@@H](O)[C@]12O)[C@H]1[C@@H](C[C@H]3C)C1(C)C [PEP005, ingenol-3-angelate]
IL-8 (Me10538 cells; PEP005 1 ng/ml): <2 pg/mL | IL-8 (Me10538 cells; PEP005 5 ng/ml): 210 ± 6 pg/mL | IL-8 (Me10538 cells; PEP005 10 ng/ml): 737 ± 26 pg/mL | IL-8 (Me10538 cells; PEP005 100 ng/ml): 390 ± 18 pg/mL | mean tensile strength of wound ([1]; week 4, 0.01%, 0.028%, 0.05% PEP005 gel): dose dependent trend, with increasing tensile strength | mean tensile strength of wound ([1]; week 12, 0.01% PEP005 gel): increasing | mean tensile strength of wound ([1]; week 12, 0.028% PEP005 gel): declining at 0.028% to control levels | mean tensile strength of wound ([1]; week 12, 0.05% PEP005 gel): another increase | α-smooth muscle actin expression (dermal fibroblasts; 1 μg/ml PEP005): detectable α-smooth muscle actin microfilaments | α-smooth muscle actin expression (dermal fibroblasts; 10 μg/ml PEP005): detectable α-smooth muscle actin microfilaments
